US9802901B2, “Antibacterial 2H-indazole derivatives” (priority 2013, dated 2017)
≈ marks a conversion by molar mass, not a printed value.

Assays:
Assay in all cases: Bacterial growth minimal inhibitory concentration (broth microdilution, CLSI M7-A7)
[1] = system: Acinetobacter baumannii T6474; type: cell-based; conditions: cation-adjusted Mueller-Hinton Broth, microdilution, multiply-resistant (quinolone-resistant) strain; for MIC: Acinetobacter baumannii, T6474, read-out: MIC for A. Baumannii T6474
Description: (§1) Minimal Inhibitory Concentrations (MICs; mg/L) were determined in cation-adjusted Mueller-Hinton Broth by a microdilution method following the description given in “Methods for Dilution Antimicrobial Susceptibility Tests for Bacteria that Grow Aerobically”, Approved standard, 7th ed., Clinical and Laboratory Standards Institute (CLSI) Document M7-A7, Wayne, Pa., USA (2006).
(§2) All Example compounds, except the compound of Example 62, were tested against several Gram-positive and Gram-negative bacteria. […] K. pneumoniae A-651 and Acinetobacter baumannii T6474 are multiply-resistant strains (in particular quinolone-resistant), while E. coli ATCC25922 and P. aeruginosa ATCC27853 are quinolone-sensitive strains.

[2] = system: P. aeruginosa ATCC27853; type: cell-based, Pseudomonas aeruginosa; conditions: cation-adjusted Mueller-Hinton Broth, microdilution, quinolone-sensitive strain; for MIC: Pseudomonas aeruginosa, ATCC27853, read-out: MIC for P. aeruginosa ATCC27853
Description: as §1, §2

[3] = system: E. coli ATCC25922; type: cell-based, Escherichia coli; conditions: cation-adjusted Mueller-Hinton Broth, microdilution, quinolone-sensitive strain; for MIC: Escherichia coli, ATCC25922, read-out: MIC for E. coli ATCC25922
Description: as §1, §2

[4] = system: K. pneumoniae A-651; type: cell-based, Klebsiella pneumoniae; conditions: cation-adjusted Mueller-Hinton Broth, microdilution, multiply-resistant (quinolone-resistant) strain; for MIC: Klebsiella pneumoniae, A651, read-out: MIC for K. Pneumoniae A-651
Description: as §1, §2

Compound	MIC [1]	MIC [2]	MIC [3]	MIC [4]	MIC for A. Baumannii T6474 [1]	MIC for P. aeruginosa ATCC27853 [2]	MIC for E. coli ATCC25922 [3]	MIC for K. Pneumoniae A-651 [4]
CC(C)(N)C(=O)N1CC(C#CC#Cc2ccc3nn(CC[C@](C)(C(=O)NO)S(C)(=O)=O)cc3c2)C1 [Example 85, (R)-4-(5-((1-(2-amino-2-methylpropanoyl)azetidin-3-yl)buta-1,3-diyn-1-yl)-2H-indazol-2-yl)-N-hydroxy-2-methyl-2-(methylsulfonyl)butanamide]	> 32 µg/mL	2 µg/mL (≈ 4 µM)	4 µg/mL (≈ 8.01 µM)	8 µg/mL (≈ 16 µM)	–	–	–	–
CC(CCn1cc2cc(-c3ccc(OCCN4CCOCC4)cc3)ccc2n1)(C(=O)NO)S(C)(=O)=O.O=CO (racemic) [RE2, (RS)—N-hydroxy-2-methylsulfonyl-2-methyl-4-{5-[4-(2-morpholin-4-yl-ethoxy)-phenyl]-indazol-2-yl}-butanamide formic acid salt]	4 µg/mL	4 µg/mL	1 µg/mL	1 µg/mL	–	–	–	–
C[C@@](CCn1cc2cc(C#Cc3ccc(CO)cc3F)ccc2n1)(C(=O)NO)S(C)(=O)=O [Example 39, (R)-4-[5-(2-fluoro-4-hydroxymethyl-phenylethynyl)-indazol-2-yl]-N-hydroxy-2-methylsulfonyl-2-methyl-butanamide]	0.25 µg/mL (≈ 0.544 µM)	1 µg/mL (≈ 2.18 µM)	0.125 µg/mL (≈ 0.272 µM)	0.125 µg/mL (≈ 0.272 µM)	–	–	–	–
C[C@]1(CO)C[C@@H]1C#CC#Cc1ccc2nn(CC[C@](C)(C(=O)NO)S(C)(=O)=O)cc2c1 [Example 69]	–	–	–	–	2 µg/mL	0.25 µg/mL	≦0.063 mg/L	0.125 µg/mL
C[C@@](CCn1cc2cc(C#CC#C[C@@H]3C[C@H]3CN)ccc2n1)(C(=O)NO)S(C)(=O)=O [Example 72, (R)-4-(5-(((1R,2R)-2-(aminomethyl)cyclopropyl)buta-1,3-diyn-1-yl)-2H-indazol-2-yl)-N-hydroxy-2-methyl-2-(methylsulfonyl)butanamide]	> 8 µg/mL	2 µg/mL (≈ 4.67 µM)	2 µg/mL (≈ 4.67 µM)	4 µg/mL (≈ 9.33 µM)	–	–	–	–
C[C@@](O)(C#CC#Cc1ccc2nn(CC[C@](C)(C(=O)NO)S(C)(=O)=O)cc2c1)CO [Example 46, (R)-4-(5-((R)-5,6-dihydroxy-5-methylhexa-1,3-diyn-1-yl)-2H-indazol-2-yl)-N-hydroxy-2-methyl-2-(methylsulfonyl)butanamide]	> 32 µg/mL	4 µg/mL (≈ 9.23 µM)	4 µg/mL (≈ 9.23 µM)	8 µg/mL (≈ 18.5 µM)	–	–	–	–
COc1ccc(-c2ccc3nn(CC[C@](C)(C(=O)NO)S(C)(=O)=O)cc3c2)cc1 [Example 2, (R)—N-hydroxy-2-methylsulfonyl-4-[5-(4-methoxy-phenyl)-indazol-2-yl]-2-methyl-butanamide]	1 µg/mL (≈ 2.4 µM)	4 µg/mL (≈ 9.58 µM)	0.125 µg/mL (≈ 0.299 µM)	0.5 µg/mL (≈ 1.2 µM)	–	–	–	–
C[C@@H](O)c1ccc(C#Cc2ccc3nn(CC[C@](C)(C(=O)NO)S(C)(=O)=O)cc3c2)cc1 [Example 33, (R)—N-hydroxy-4-(5-((4-((R)-1-hydroxyethyl)phenyl)ethynyl)-2H-indazol-2-yl)-2-methyl-2-(methylsulfonyl)butanamide]	2 µg/mL (≈ 4.39 µM)	0.5 µg/mL (≈ 1.1 µM)	0.063 µg/mL (≈ 0.138 µM)	0.125 µg/mL (≈ 0.274 µM)	–	–	–	–
C[C@@](CCn1cc2cc(C#Cc3ccc(CO)c(F)c3)ccc2n1)(C(=O)NO)S(C)(=O)=O [Example 22, (R)-4-[5-(3-fluoro-4-hydroxymethyl-phenylethynyl)-indazol-2-yl]-N-hydroxy-2-methylsulfonyl-2-methyl-butanamide]	1 µg/mL (≈ 2.18 µM)	2 µg/mL (≈ 4.35 µM)	0.125 µg/mL (≈ 0.272 µM)	0.5 µg/mL (≈ 1.09 µM)	–	–	–	–
CC(CCn1cc2cc(-c3ccc(OCCN4CCOCC4)cc3F)ccc2n1)(C(=O)NO)S(C)(=O)=O.O=CO (racemic) [RE3, (RS)-4-{5-[2-fluoro-4-(2-morpholin-4-yl-ethoxy)-phenyl]-indazol-2-yl}-N-hydroxy-2-methylsulfonyl-2-methyl-butanamide formic acid salt]	8 µg/mL	8 µg/mL	1 µg/mL	2 µg/mL	–	–	–	–
CN(C)c1ccc(-c2ccc3nn(CC[C@](C)(C(=O)NO)S(C)(=O)=O)cc3c2)cc1 [Example 11, (R)-4-[5-(4-dimethylamino-phenyl)-indazol-2-yl]-N-hydroxy-2-methylsulfonyl-2-methyl-butanamide]	2 µg/mL (≈ 4.65 µM)	8 µg/mL (≈ 18.6 µM)	0.063 µg/mL (≈ 0.146 µM)	0.063 µg/mL (≈ 0.146 µM)	–	–	–	–
C[C@@](CCn1cc2cc(C#Cc3ccc(N)cc3)ccc2n1)(C(=O)NO)S(C)(=O)=O [Example 19, (R)-4-[5-(4-amino-phenylethynyl)-indazol-2-yl]-N-hydroxy-2-methylsulfonyl-2-methyl-butanamide]	0.5 µg/mL (≈ 1.17 µM)	2 µg/mL (≈ 4.69 µM)	0.063 µg/mL (≈ 0.148 µM)	0.125 µg/mL (≈ 0.293 µM)	–	–	–	–
C[C@@](CCn1cc2cc(C#CC#CC3(O)COC3)ccc2n1)(C(=O)NO)S(C)(=O)=O [Example 28, (R)—N-hydroxy-4-(5-((3-hydroxyoxetan-3-yl)buta-1,3-diyn-1-yl)-2H-indazol-2-yl)-2-methyl-2-(methylsulfonyl)butanamide]	> 32 µg/mL	1 µg/mL (≈ 2.32 µM)	0.5 µg/mL (≈ 1.16 µM)	0.5 µg/mL (≈ 1.16 µM)	–	–	–	–
C[C@@](CCn1cc2cc(C#Cc3ccc(CCO)cc3)ccc2n1)(C(=O)NO)S(C)(=O)=O [Example 25, (R)—N-hydroxy-4-{5-[4-(2-hydroxy-ethyl)-phenylethynyl]-indazol-2-yl}-2-methylsulfonyl-2-methyl-butanamide]	0.5 µg/mL (≈ 1.1 µM)	0.5 µg/mL (≈ 1.1 µM)	0.063 µg/mL (≈ 0.138 µM)	0.063 µg/mL (≈ 0.138 µM)	–	–	–	–
C[C@@](CCn1cc2cc(-c3ccc(OC(F)(F)F)cc3F)ccc2n1)(C(=O)NO)S(C)(=O)=O [Example 35, (R)-4-[5-(2-fluoro-4-trifluoromethoxy-phenyl)-indazol-2-yl]-N-hydroxy-2-methylsulfonyl-2-methyl-butanamide]	0.25 µg/mL (≈ 0.511 µM)	4 µg/mL (≈ 8.17 µM)	0.125 µg/mL (≈ 0.255 µM)	0.5 µg/mL (≈ 1.02 µM)	–	–	–	–
C[C@@](CCn1cc2cc(C#Cc3ccc([C@@H](O)CO)cc3)ccc2n1)(C(=O)NO)S(C)(=O)=O [Example 26, (2R)-4-{5-[4-((R)-1,2-dihydroxy-ethyl)-phenylethynyl]-indazol-2-yl}-N-hydroxy-2-methylsulfonyl-2-methyl-butanamide]	8 µg/mL (≈ 17 µM)	1 µg/mL (≈ 2.12 µM)	0.5 µg/mL (≈ 1.06 µM)	0.5 µg/mL (≈ 1.06 µM)	–	–	–	–
C[C@@](CCn1cc2cc(C#CC#CC3(O)CSC3)ccc2n1)(C(=O)NO)S(C)(=O)=O [Example 13, (R)—N-hydroxy-4-(5-((3-hydroxythietan-3-yl)buta-1,3-diyn-1-yl)-2H-indazol-2-yl)-2-methyl-2-(methylsulfonyl)butanamide]	32 µg/mL (≈ 71.5 µM)	0.5 µg/mL (≈ 1.12 µM)	0.125 µg/mL (≈ 0.279 µM)	0.25 µg/mL (≈ 0.559 µM)	–	–	–	–
C[C@@](CCn1cc2cc(C#CC#C[C@H]3C[C@]3(F)CO)ccc2n1)(C(=O)NO)S(C)(=O)=O [Example 77, (R)-4-(5-(((1R,2R)-2-fluoro-2-(hydroxymethyl)cyclopropyl)buta-1,3-diyn-1-yl)-2H-indazol-2-yl)-N-hydroxy-2-methyl-2-(methylsulfonyl)butanamide]	4 µg/mL (≈ 8.94 µM)	0.25 µg/mL (≈ 0.559 µM)	0.125 µg/mL (≈ 0.279 µM)	0.25 µg/mL (≈ 0.559 µM)	–	–	–	–
C[C@@](CCn1cc2cc(C#CC#CC3(N)CC3)ccc2n1)(C(=O)NO)S(C)(=O)=O [Example 65, (R)-4-(5-((1-aminocyclopropyl)buta-1,3-diyn-1-yl)-2H-indazol-2-yl)-N-hydroxy-2-methyl-2-(methylsulfonyl)butanamide]	> 32 µg/mL	0.5 µg/mL (≈ 1.21 µM)	0.125 µg/mL (≈ 0.302 µM)	0.125 µg/mL (≈ 0.302 µM)	–	–	–	–
